Data from patent US8791141B2, “Organic compounds” (Novartis AG, priority 2008, dated 2014).

How the values were obtained:
[1] = biological target: T1, CYP11B1 (steroid 11-hydroxylase) (Homo sapiens, UniProt P15538); assay: Inhibition of cortisol secretion in NCI-H295R cells; assay type: cell-based; settings: human adrenocortical carcinoma NCI-H295R cells, 24 hours with cell stimulant
T1 construct: the NCI-H295R cells have CYP11B2 (aldosterone synthase) and CYP11B1 (steroid 11-hydroxylase); host or cells: NCI-H295R
T1 sequence (P15538 25-503): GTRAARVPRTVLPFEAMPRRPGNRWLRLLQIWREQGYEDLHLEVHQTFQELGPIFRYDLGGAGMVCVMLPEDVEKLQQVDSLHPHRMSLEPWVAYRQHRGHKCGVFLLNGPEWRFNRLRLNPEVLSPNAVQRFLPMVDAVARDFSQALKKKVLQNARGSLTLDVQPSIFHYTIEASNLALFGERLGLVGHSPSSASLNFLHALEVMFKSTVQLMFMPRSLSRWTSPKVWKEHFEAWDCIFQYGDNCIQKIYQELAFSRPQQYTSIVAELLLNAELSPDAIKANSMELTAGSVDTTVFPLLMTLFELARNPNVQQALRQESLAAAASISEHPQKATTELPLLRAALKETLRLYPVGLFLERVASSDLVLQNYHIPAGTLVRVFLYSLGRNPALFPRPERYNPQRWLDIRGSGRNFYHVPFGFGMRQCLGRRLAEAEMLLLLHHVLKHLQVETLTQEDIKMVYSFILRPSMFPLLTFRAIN
Excerpt: (§1) The activities of a compound according to the present invention can be assessed by the following in vitro method well-described in the art.
(§2) In particular, the inhibition of aldosterone and cortisol secretion in vitro can be determined by the following assay.
(§3) The cell line NCI-H295R was originally isolated from an adrenocortical carcinoma and has been characterized in the literature through the stimulable secretion of steroid hormones and the presence of the enzymes essential for steroidogenesis. The cells show the physiological property of zonally undifferentiated human foetal adrenocortical cells which, however, have the capacity to produce the steroid hormones which are formed in the three phenotypically distinguishable zones in the adult adrenal cortex. Thus, the NCI-H295R cells have CYP11B2 (aldosterone synthase) and CYP11B1 (steroid 11-hydroxylase).
(§4) The human adrenocortical carcinoma NCI-H295R cell line is obtained from American Type Culture Collection (Manassas, Va.). Insulin/transferrin/selenium (ITS)-A supplement (100×), DMEM/F-12, antibiotic/antimycotic (100×), and fetal calf serum (FCS) are purchased from Invitrogen (Carlsbad, Calif.). Anti-mouse PVT scintillation proximity assay (SPA) beads and NBS 96-well plates are obtained from Amersham (Piscataway, N.J.) and Corning (Acton, Mass.), respectively. Clear bottom 96-well flat bottom plates are purchased from Costar (Corning, N.Y.). Aldosterone and angiotensin (Ang II) are purchased from Sigma (St. Louis, Mo.). D[1,2,6,7-3H(N)]aldosterone and [1,2,6,7-3H(N)]cortisol are acquired from PerkinElmer (Boston, Mass.). Nu-serum is a product of BD Biosciences (Franklin Lakes, N.J.).
(§5) For in vitro measurement of aldosterone and cortisol activity, human adrenocortical carcinoma NCI-H295R cells are seeded in NBS 96-well plates at a density of 25,000 cells/well in 100 μL of a growth medium containing DMEM/F12 supplemented with 10% FCS, 2.5% Nu-serum, 1 μg ITS/ml, and 1× antibiotic/antimycotic. The medium is changed after culturing for 3 days at 37° C. under an atmosphere of 5% CO2/95% air. On the following day, cells are rinsed with 100 μL of DMEM/F12 and incubated in quadruplicate wells at 37° C. for 24 hours with 100 μL of treatment medium containing a cell stimulant and a compound at different concentrations. […] Cell stimulants which can be used are angiotensin-II (1 micromolar), potassium ions (16 millimolar), forskolin (10 micromolar) or a combination of two stimulants. At the end of incubation, the excretion of aldosterone and cortisol into the culture medium can be detected and quantified by commercially available, specific monoclonal antibodies in radioimmunoassays in accordance with the manufacturer's instructions.
(§6) Measurement of aldosterone can also be performed using a 96-well plate format. Each test sample is incubated with 0.02 μCi of D[1,2,6,7-3H(N)]aldosterone and 0.3 μg of anti-aldosterone antibody in phosphate-buffered saline (PBS) containing 0.1% Triton X-100, 0.1% bovine serum albumin, and 12% glycerol in a total volume of 200 μL at room temperature for 1 hour. Anti-mouse PVT SPA beads (50 μL) are then added to each well and incubated overnight at room temperature prior to counting in a Microbeta plate counter. The amount of aldosterone in each sample is calculated by comparing with a standard curve generated using known quantities of the hormone. Measurement of cortisol can be performed in a manner similar to that of aldosterone, except that [1,2,6,7-3H(N)]cortisol is used.
(§7) Inhibition of the release of a steroid can be used as a measure of the respective enzyme inhibition by the added test compounds. The dose-dependent inhibition of enzymatic activity by a compound is calculated by means of an inhibition plot which is characterized by an IC50. […] The inhibition plot is calculated by fitting a 4-parameter logistic function to the raw data points using the least squares method.

[2] = biological target: T2, CYP11B2 (aldosterone synthase) (Homo sapiens, UniProt P19099); assay: Inhibition of aldosterone secretion in NCI-H295R cells; assay type: cell-based; settings: human adrenocortical carcinoma NCI-H295R cells, 24 hours with cell stimulant
T2 construct: the NCI-H295R cells have CYP11B2 (aldosterone synthase) and CYP11B1 (steroid 11-hydroxylase); host or cells: NCI-H295R
T2 sequence (P19099 25-503): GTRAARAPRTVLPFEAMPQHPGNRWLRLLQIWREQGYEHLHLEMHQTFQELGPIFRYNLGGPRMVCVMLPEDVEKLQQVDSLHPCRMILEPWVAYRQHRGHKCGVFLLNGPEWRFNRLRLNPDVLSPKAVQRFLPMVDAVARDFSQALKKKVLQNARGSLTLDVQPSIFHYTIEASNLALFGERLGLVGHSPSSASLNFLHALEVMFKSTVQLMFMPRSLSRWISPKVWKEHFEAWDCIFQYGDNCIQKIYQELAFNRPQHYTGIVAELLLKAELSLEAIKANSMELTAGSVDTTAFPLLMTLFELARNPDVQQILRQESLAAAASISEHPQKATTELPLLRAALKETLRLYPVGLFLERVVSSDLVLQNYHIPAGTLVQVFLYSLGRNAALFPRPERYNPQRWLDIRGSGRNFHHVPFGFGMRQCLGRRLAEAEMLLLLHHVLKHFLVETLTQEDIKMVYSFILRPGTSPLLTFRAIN
Excerpt: as §1, §2, §3, §4, §5, §6, §7

IC50 [1]: > 1000 nM
IC50 [2]: 23 nM
SMILES: CCNS(=O)(=O)c1cncc(-c2cc3ccccc3n2C)c1 [Example 242, N-ethyl-5-(1-methyl-1H-indol-2-yl)pyridine-3-sulfonamide]
